# Read-outs that look alike come from different tables or passages of the source.
# Tests used:
# [1] = cited from earlier work
# [2] = Subacute and chronic toxicities; assay type: in vivo; conditions: rats 100 to 1000 mg/Kg and beagles 100 mg/Kg daily, 3 or 6 months
# Experimental: (B) Subacute and Chronic Toxicities:
# TN and TA were separately administered to rats and beagles at daily doses of 100 to 1000 mg/Kg and 100 mg/Kg, respectively, continuously for 3 or 6 months.
# [3] = Hypotensive effect on experimental hypertension caused by DOCA; assay type: in vivo, male wistar rats
# Experimental: (A) Hypotensive effect on experimental hypertension caused by administration of desoxycorticosterone (hereinafter referred to as "DOCA"):
# Right kidneys were removed from 6-week-old male wistar rats, and a 1% aqueous solution of sodium chloride was given as drinking water and 12.5 mg/Kg of DOCA was intramuscularly injected every week. The change of the blood pressure was examined over a period of 6 weeks.
# 48 rats, each having one kidney removed, were divided into 6 groups, each consisting of 8 rats, and each group was placed in a cage. With respect to each group, a gum arabic solution was administered to 2 rats as non-administered control animals. 20 mg/Kg of TN was administered once a day to each of two rats among the remaining 6 rats, and 100 mg/Kg of TN was administered once a day to each of two rats among the remaining 4 rats. 88 mg/Kg of TA was administered once a day to each of the remaining two rats. TN and TA were administered in the form of a suspension in gum arabic. The blood pressure was measured by a Shimazu type systolic pressure continuous recording apparatus detecting pulse waves of rats taken in a thermostat fixed box maintained at 30° C.
# Acute toxicity on mice = assay type: in vivo
# Source text: (§1) Toxicities of TN and TA will now be described.
# Acute toxicity on rats = assay type: in vivo; conditions: for LD50: rats
# Source text: as §1
# [4] = Experiment on young SHR (rats of spontaneous hypertension); assay type: in vivo, rats (7-week-old female SHR); conditions: 88 mg/kg TA
# Experimental: Experiments were conducted by using two classes of rats of spontaneous hypertension (hereinafter referred to as "SHR"; provided by Nippon Rat K.K.) differing in the age. In the first experiment, 9-month-old chronic […] SHR (hereinafter referred to as "old SHR"), and in the second experiment, 7-week-old SHR in which hypertension was advancing (hereinafter referred to as "young SHR") was used.
# (B) Experiment on Young SHR:
# 72 of 7-week-old female SHR (having a body weight of 130 to 175 g) were divided into 9 cages, each consisting of 8 rats. Service water was given as drinking water to rats of two cages among these 9 cages, and these rats were compared with other rats which were given a 1% aqueous solution of sodium chloride as drinking water. In each of the […] cages of rats to which the sodium chloride solution was given, no agent was administered to 2 of 8 rats, 20 mg/Kg of TN was administered to another 2 rats, 100 mg/Kg of TN was administered to still another 2 rats, and 88 mg/Kg of TA was administered to the remaining 2 rats.
# After 2 weeks' feeding with the sodium chloride solution, administration was conducted once a day. Within 2 weeks from the start of administration,3 rats in the Control (non-administered) group, one rat in the 20 mg/Kg TN administered group, 3 rats in the 100 mg/Kg TN administered group, 3 rats in the 88 mg/Kg TA administered group and 4 rats in the service water given group were dead. In view of the body weight decrease and the snivel secretion and from the results of autopsy, it was judged that each of them died of pneumonia. The rats that died prior to initiation of the administration were not taken in account in evaluating the experimental results.
# [5] = Teratogenetic property test; assay type: in vivo, pregnant mice or pregnant rats; conditions: orally, 100 to 1200 mg/Kg
# Source text: (C) Teratogenetic Property Test:
smiles,measurement,setting,value
CC(COc1ccccc1)N(CCCl)Cc1ccccc1 (stereo not shown) [phenoxybenzamine],undesirable side effects,[1]; prior art,orthostatic hypotensive asthenia and tachycardia
NS(=O)(=O)c1cc2c(cc1Cl)NCNS2(=O)=O [hydrochlorothiazide],undesirable side effects,[1]; in vivo,"hypokalemia, hypercirycemia and manifestation of latent diabetes"
same,hypotensive activity,[1]; prior art,moderate hypotensive activity
COC(=O)[C@H]1[C@H]2C[C@@H]3c4[nH]c5cc(OC)ccc5c4CCN3C[C@H]2C[C@@H](OC(=O)c2cc(OC)c(OC)c(OC)c2)[C@@H]1OC [Reserpine],undesirable side effects,[1]; prior art,"inhibition of the central nervous system, such as asthenic feeling"
"CC(=O)Oc1c(C)c(C)c2c(c1C)CCC(C)(CCCC(C)CCCC(C)CCCC(C)C)O2 (racemic) [TA, dl-α-tocopheryl acetate]",deaths,[2],no deaths
same,"haematological, haemetobiological and histological surveys",[2],no manifestation of the toxicity was observed
same,inhibition of the body weight,[2],inhibition of the body weight was not observed
same,number of rats with blood pressure elevated to 170 mm Hg or higher,"[3]; 88 mg/kg of TA once a day, among 12 rats (control 9 among 11)",4 rats
same,"hypotensive effect, overall conclusion from pharmacological tests on animals","[3]; DOCA rats, old SHR, young SHR",have a hypotensive effect
same,LD50,"Acute toxicity on mice; I.M., female",> 15000 mg/kg
same,LD50,"Acute toxicity on mice; I.V., female",> 1000 mg/kg
same,LD50,"Acute toxicity on mice; P.O., female",> 20000 mg/kg
same,LD50,"Acute toxicity on mice; S.C., female",> 20000 mg/kg
same,LD50,"Acute toxicity on mice; mouse, in vivo, im, I.M., male, read-out: LD50",> 15000 mg/kg
same,LD50,"Acute toxicity on mice; mouse, in vivo, ip, I.P., male, read-out: LD50",> 4000 mg/kg
same,LD50,"Acute toxicity on mice; mouse, in vivo, iv, I.V., male, read-out: LD50",> 1000 mg/kg
same,LD50,"Acute toxicity on mice; mouse, in vivo, po, P.O., male, read-out: LD50",> 20000 mg/kg
same,LD50,"Acute toxicity on mice; mouse, in vivo, sc, S.C., male, read-out: LD50",> 20000 mg/kg
same,animals killed in acute toxicity test,"Acute toxicity on rats; mice and rats, maximum amount that can be administered",no test animal was killed
same,LD50,"Acute toxicity on rats; rat, in vivo, im, I.M., male, read-out: LD50",> 10000 mg/kg
same,LD50,"Acute toxicity on rats; rat, in vivo, ip, I.P., male, read-out: LD50",> 2000 mg/kg
same,LD50,"Acute toxicity on rats; rat, in vivo, iv, I.V., male, read-out: LD50",> 250 mg/kg
same,LD50,"Acute toxicity on rats; rat, in vivo, po, P.O., male, read-out: LD50",> 15000 mg/kg
same,LD50,"Acute toxicity on rats; rat, in vivo, sc, S.C., male, read-out: LD50",> 15000 mg/kg
same,LD50,"Acute toxicity on rats; I.M., female",> 10000 mg/kg
same,LD50,"Acute toxicity on rats; I.V., female",> 250 mg/kg
same,LD50,"Acute toxicity on rats; P.O., female",> 15000 mg/kg
same,LD50,"Acute toxicity on rats; S.C., female",> 15000 mg/kg
same,dead rats within 6 weeks from the start of the administration,"[4]; among 11 rats, control 5 among 11",3 rats
same,dead rats within 2 weeks from the start of administration,"[4]; judged pneumonia, control 3",3 rats
same,"influences on mother animals, embryos and newborn babies",[5],no influences were observed
same,teratogenetic property,[5],no teratogenetic property
C[C@](N)(Cc1ccc(O)c(O)c1)C(=O)O [l-α-Methyl Dopa],hypotensive activity,[1]; prior art,high hypotensive activity
same,undesirable side effects,[1]; prior art,"mammary hypertrophy, paraesthesia, nightmare and Parkisonism"
NNc1nncc2ccccc12 [Hydralazine],effect on the heart,[1]; prior art,increases the amount of blood fed to the heart and the pulse frequency and thus increases the load on the heart
same,hypotensive activity,[1]; prior art,high hypotensive activity
same,undesirable side effects,[1]; prior art,multiple arthritis resembling rheumatic arthritis and lupus erythematosus

# Source: patent US4088778A, “Method for the treatment of hypertension” (priority 1975, dated 1978)
